Values quoted from earlier work in US20250177320A1 (CinRx Pharma, LLC, priority 2017, published 2025).

Structure (SMILES): Oc1cc(O)cc(O)c1 [Phloroglucinol, 1,3,5-benzenetriol]
- bioavailability (absorption) (after an oral dose): 47%
- plasma half-life (plasma): 1.5 h
- peak blood concentration (single oral dose of 160 mg): 677 ng/mL
- time to peak blood concentration (single oral dose of 160 mg): 20 min
